Measured values published in patent publication US20160281050A1, “METHODS FOR TREATING A CULTURE OF HAEMATOCOCCUS PLUVIALIS FOR CONTAMINATION USING SALT AND HYDROGEN PEROXIDE” (HELIAE DEVELOPMENT LLC, priority 2015, published 2016).
Read-outs that look alike come from different tables or passages of the source.

Columns and labels:
[1] = tested on: Haematococcus pluvialis (Strain 1) green swimmer cells
Description: Haematococcus pluvialis cultures containing green swimmer cells in open raceway pond bioreactors [identification numbers (#) 2210 and 2220] disposed in a greenhouse, using paddlewheel mixing, and operating in conditions: reactor volume of 16,000 L; Daily photosynthetically active radiation (PAR) of 57 mol m^−2 d^−1; pH of 7.5; and paddlewheel speed of 40%; were inoculated on the same day and cultured in growth conditions.
The culture of bioreactor #2330 was transferred to open raceway pond bioreactor #2420 disposed in a greenhouse, using paddlewheel mixing, and operating in conditions: reactor volume of 140,000 L; Daily PAR of 58 mol m^−2 d^−1; pH of 7.3; and paddlewheel speed of 70%); but the culture was not treated after the transfer. […] Bacteria including Pseudomonas, Flectobacillus, and Cytophaga were present in the bacterial community in both the bioreactors #2330 and #2420.

[2] = tested on: Haematococcus pluvialis (Strain 1) green swimmer cells; settings: for % Lysis: samples from Bioreactor #2430 48 hours after transfer
Description: A series of experiments were conducted to determine if treating a culture of Haematococcus pluvialis with hydrogen peroxide prevents lysis.

[3] = tested on: chytrids; settings: for % Chytrids Infection: 0.0105 mL/L every 6 hours
Excerpt: Three 3,000 L open raceway pond bioreactor #'s MP1, MP2, & MP3 with paddlewheel mixing disposed outdoors were inoculated with cultures of green swimmer Haematococcus pluvialis (Strain 2) cells from outdoor reactor #2310 at a dilution ratio of 1 part culture samples to 3 parts reddening media containing 1 ppt salt (NaCl). […] MP2 was not treated with hydrogen peroxide to serve as an untreated control for comparison purposes. […] After hydrogen peroxide treatments began, the percent of the cultures infected with chytrids, percent of carotenoids by UV method, and cell dry weight (g/L) were quantified daily.

[4] = tested on: chytrids; experiment: % chytrid infection in flasks, salt treatment (Example 12); assay type: cell-based
Description: (§1) This test was done side by side in flasks (0.1 L) and in reactors located in a greenhouse operating in conditions: reactor volume of 230 L; Daily PAR of 20 mol m^−2 d^−1; pH (not measured); and paddlewheel speed of 21 RPM. […] The flask cultures were mixed by shaking at 140 rpm and received 300-400 μmol/m^2 s of photosynthetically active radiation (PAR) in 12 hour light cycles and constant supply of 2.5% CO2. The motility of the culture was monitored by visual observation under a microscope. […] Nine 230 L reactors were also seeded with culture from bioreactor #2410 on the same day as the flasks and brought to 2 ppt concentration of salt. Once motility of the cells was reduced to <10% (day 3 of culture for flasks and day 2 for 230 L reactors) the level of salt was elevated to a point between 4-18 ppt and compared to the culture in two reactors remaining at 2 ppt salt. Flasks and 230 L reactors were monitored for percentage of cell lysis via visual observation under a microscope, culture dry weight (biomass accumulation in g/L), and percentage of chytrid infection via visual observation under a microscope. Carotenoid production, a proxy for determining astaxanthin, was quantified every other day of culture in the 230 L reactors using the UV method.

[5] = tested on: pure chytrid culture; experiment: Chytrid tolerance: pure chytrid culture in well plate, observed under a microscope (Examples 13-14); assay type: cell-based
Description: Experiments were performed to determine chytrid tolerance to bleach, salt, Lufenuron (chemical biocide), and Rid Fungus (blend of natural organic herbs) for evaluation as a treatment for chytrids. A pure chytrid culture in a well plate was treated every 24 hours and observed under a microscope to determine the effect. An untreated culture was used as a control for comparison purposes. Qualitative assessments and quantitative estimates were made by visual observation under a microscope.
Several concentrations of salt and Rid Fungus (blend of organic herbs) were further investigated as a chytrid treatment, as in Example 13. A pure chytrid culture in a well plate was treated and visually observed under a microscope to determine the effect. An untreated culture was used as a control for comparison purposes.

[6] = tested on: Haematococcus pluvialis (Strain 2); experiment: % cell lysis and culture dry weight in flasks, salt treatment (Example 12); assay type: cell-based
Description: as §1

[7] = bioreactor #2220, 0.0075 mL/L every 24 hours

hydrogen peroxide [H2O2]
duration of high motility compared with untreated culture #2210 [1, 7]: one day longer | motility retained [1, 7]: 95% | time of chytrid detection compared with untreated culture #2310 ([1]; bioreactor #2320, 0.0075 mL/L every 24 hours): three days later | onset of high amounts of cell lysis ([1]; bioreactor #2320, treated culture): not until five days after the treatment ended | decrease of motility ([1]; bioreactor #2330, 0.0075 mL/L, after the first treatment): about 30% | lysis ([1]; bioreactor #2330, 0.0075 mL/L, after the second treatment): 60% | Chytrid sporangia present, time after hydrogen peroxide treatment ended ([1]; bioreactors #2330/#2420, end of the culture period): 7 days | Chytrid sporangia in the culture ([1]; bioreactors #2330/#2430, 0.0075 mL/L once before and twice after transfer): not detected | time high amounts of cell lysis remained high ([1]; bioreactors #2330/#2430, treatment began after lysis had occurred): 4 days | lysis level with the hydrogen peroxide treatments ([2]; Tables 6 and 7, 0.007 mL/L three times per day): less than 30% | % Lysis (±1SD) ([2]; samples from Bioreactor #2330, 0.007 mL/L three times per day, 0 h): 8.3 ± 7.6% | % Lysis (±1SD) ([2]; samples from Bioreactor #2330, 0.007 mL/L three times per day, 24 h): 10.0 ± 4.7% | % Lysis (±1SD) ([2]; samples from Bioreactor #2330, 0.007 mL/L three times per day, 48 h): 12.5 ± 3.5% | % Lysis (±1SD) ([2]; samples from Bioreactor #2330, 0.007 mL/L three times per day, 72 h): 0.0 ± 0.0% | % Lysis (±1SD) ([2]; samples from Bioreactor #2330, 0.007 mL/L three times per day, 120 h): 0.8 ± 1.2% | % Lysis (±1SD) ([2]; samples from Bioreactor #2430 24 hours after transfer, 0.007 mL/L three times per day, 0 h): 0.0 ± 0.0% | % Lysis (±1SD) ([2]; samples from Bioreactor #2430 24 hours after transfer, 0.007 mL/L three times per day, 24 h): 7.5 ± 1.2% | % Lysis (±1SD) ([2]; samples from Bioreactor #2430 24 hours after transfer, 0.007 mL/L three times per day, 48 h): 0.0 ± 0.0% | % Lysis (±1SD) ([2]; samples from Bioreactor #2430 24 hours after transfer, 0.007 mL/L three times per day, 96 h): 4.1 ± 1.2% | % Lysis ([2]; 0.007 mL/L three times per day, 0 h): 3.3 ± 2.9% | % Lysis ([2]; 0.007 mL/L three times per day, 24 h): 25.0 ± 9.4% | % Lysis ([2]; 0.007 mL/L three times per day, 96 h): 16.7 ± 4.7% | reduction of lysis ([2]; vs control cultures, Tables 6 and 7): 60-80% | % Chytrids Infection ([3]; MP1, initial infection 20%, day 7): 23.3 ± 5.8% | % Chytrids Infection ([3]; MP1, initial infection 20%, day 8): 20.0 ± 5.0% | % Chytrids Infection ([3]; MP1, initial infection 20%, day 9): 30.0 ± 10.0% | % Chytrids Infection ([3]; MP1, initial infection 20%, day 10): 26.7 ± 2.9% | % Chytrids Infection ([3]; MP1, initial infection 20%, day 11): 61.7 ± 24.7% | % Chytrids Infection ([3]; MP1, initial infection 20%, day 12): 63.3 ± 16.1% | % Chytrids Infection ([3]; MP1, initial infection 20%, day 13): 73.3 ± 7.6% | % Chytrids Infection ([3]; MP1, initial infection 20%, day 14): 76.7 ± 17.6% | % Chytrids Infection ([3]; MP3, initial infection less than 5%, day 7): 1.7 ± 2.9% | % Chytrids Infection ([3]; MP3, initial infection less than 5%, day 8): 0.0 ± 0.0% | % Chytrids Infection ([3]; MP3, initial infection less than 5%, day 9): 1.7 ± 2.9% | % Chytrids Infection ([3]; MP3, initial infection less than 5%, day 10): 0.0 ± 0.0% | % Chytrids Infection ([3]; MP3, initial infection less than 5%, day 11): 0.0 ± 0.0% | % Chytrids Infection ([3]; MP3, initial infection less than 5%, day 12): 0.0 ± 0.0% | % Chytrids Infection ([3]; MP3, initial infection less than 5%, day 13): 3.3 ± 2.9% | % Chytrids Infection ([3]; MP3, initial infection less than 5%, day 14): 0.0 ± 0.0% | chytrids infection level ([3]; MP3 culture, below 5% when the treatments started, 1 ppt salt): below 5%

[Cl-].[Na+] [NaCl, sodium chloride]
% Chytrid infection in Flasks ([4]; 2 ppt, 9 d): 82 ± 17% | % Chytrid infection in Flasks ([4]; 2 ppt, 11 d): 96 ± 4% | % Chytrid infection in Flasks ([4]; 4 ppt, 9 d): 22 ± 20% | % Chytrid infection in Flasks ([4]; 4 ppt, 11 d): 85 ± 16% | % Chytrid infection in Flasks ([4]; 5 ppt, 9 d): 18 ± 16% | % Chytrid infection in Flasks ([4]; 5 ppt, 11 d): 53 ± 9% | % Chytrid infection in Flasks ([4]; 6 ppt, 9 d): 8 ± 11% | % Chytrid infection in Flasks ([4]; 6 ppt, 11 d): 19 ± 27% | % Chytrid infection in Flasks ([4]; 7 ppt, 9 d): 3 ± 5% | % Chytrid infection in Flasks ([4]; 7 ppt, 11 d): 0 ± 0% | % Chytrid infection in Flasks ([4]; 8 ppt, 9 d): 1 ± 1% | % Chytrid infection in Flasks ([4]; 8 ppt, 11 d): 2 ± 2% | % Chytrid infection in Flasks ([4]; 9 ppt, 9 d): 1 ± 1% | % Chytrid infection in Flasks ([4]; 9 ppt, 11 d): 1 ± 1% | % Chytrid infection in Flasks ([4]; 10 ppt, 9 d): 0 ± 0% | % Chytrid infection in Flasks ([4]; 10 ppt, 11 d): 0 ± 0% | % Chytrid infection in Flasks ([4]; 11 ppt, 9 d): 0 ± 0% | % Chytrid infection in Flasks ([4]; 11 ppt, 11 d): 17 ± 24% | chytrid infection ([4]; treatments between 7-10 ppt in flasks): 5-10% | microscope observation of pure chytrid culture ([5]; Example 13, 20 ppt, after 1 hour): clumped sporangia and zoospores | microscope observation of pure chytrid culture ([5]; Example 13, 20 ppt, after 24 hours): Wilting sporangia and no zoospores | microscope observation of pure chytrid culture ([5]; Example 13, 20 ppt, after 48 hours): bacteria with shriveled zoospores and sporangia | microscope observation of pure chytrid culture ([5]; Example 13, 20 ppt, after 72 hours): no zoospores or sporangia | microscope observation of pure chytrid culture ([5]; Example 14, 5 ppt, after 1 hour): a less dense mass of zoospores with some being motile but sluggish | microscope observation of pure chytrid culture ([5]; Example 14, 5 ppt, after 4.5 hours): A mix of non-motile and motile zoospores | microscope observation of pure chytrid culture ([5]; Example 14, 10 ppt, after 1 hour): a mass of zoospores at the same density as the 5 ppt treatment but with all being non-motile | microscope observation of pure chytrid culture ([5]; Example 14, 10 ppt, after 4.5 hours): Non-motile zoospores only | microscope observation of pure chytrid culture ([5]; Example 14, 20 ppt, after 1 hour): a mass of zoospores less dense than mass of the 5 and 10 ppt treatments but with all being non-motile | microscope observation of pure chytrid culture ([5]; Example 14, 20 ppt, after 4.5 hours): Non-motile zoospores only | % Cell Lysis in Flasks ([6]; 2 ppt, 9 d): 0 ± 0% | % Cell Lysis in Flasks ([6]; 2 ppt, 11 d): 0 ± 0% | % Cell Lysis in Flasks ([6]; 4 ppt, 9 d): 0 ± 0% | % Cell Lysis in Flasks ([6]; 4 ppt, 11 d): 0 ± 0% | % Cell Lysis in Flasks ([6]; 5 ppt, 9 d): 0 ± 0% | % Cell Lysis in Flasks ([6]; 5 ppt, 11 d): 1 ± 1% | % Cell Lysis in Flasks ([6]; 6 ppt, 9 d): 4 ± 3% | % Cell Lysis in Flasks ([6]; 6 ppt, 11 d): 5 ± 4% | % Cell Lysis in Flasks ([6]; 7 ppt, 9 d): 0 ± 0% | % Cell Lysis in Flasks ([6]; 7 ppt, 11 d): 7 ± 3% | % Cell Lysis in Flasks ([6]; 8 ppt, 9 d): 3 ± 2% | % Cell Lysis in Flasks ([6]; 8 ppt, 11 d): 2 ± 0% | % Cell Lysis in Flasks ([6]; 9 ppt, 9 d): 0 ± 0% | % Cell Lysis in Flasks ([6]; 9 ppt, 11 d): 2 ± 0% | % Cell Lysis in Flasks ([6]; 10 ppt, 9 d): 1 ± 1% | % Cell Lysis in Flasks ([6]; 10 ppt, 11 d): 3 ± 1% | % Cell Lysis in Flasks ([6]; 11 ppt, 9 d): 0 ± 0% | % Cell Lysis in Flasks ([6]; 11 ppt, 11 d): 1 ± 1% | cell lysis ([6]; flasks, all treatments): below 10%
